Key:
Experiment in all cases: chnB monooxygenase activity assay, NADPH oxidation at 340 nm, purified over-expressed enzyme
Format in all cases: biochemical
[1] = tested on: Acidovorax sp. CHX chnB monooxygenase; details: 1.25 mM substrate, pH 7.5; ND = No Activity Detected
Source text: (§1) Following amplification, the chnB gene fragments were cloned into pTrcHis-TOPO TA vectors with either an N-terminal tail or C-terminal tail, as provided by the vector sequence (N-terminal tail for Brevibacterium sp. HCU, Rhodococcus sp. phi1, Rhodococcus sp. phi2, and Arthrobacter sp. BP2 monooxygenases; C-terminal tail for Acinetobacter sp. SE19 and Acidovorax sp. CHX monooxygenases). These vectors were transformed into E. coli, with transformants grown in Luria-Bertani broth supplemented with ampicillin (100 ug/ml) and riboflavin (0.1 ug/ml) at 30° C. until the absorbance at 600 nm (A600) reached 0.5. When the A600 was reached, the temperature was shifted to 16° C.
(§2) The encoded monooxygenase sequences were expressed upon addition of IPTG to the culture media, 30 min after the temperature shift to 16° C. The cultures were grown further ovemight (14 hrs) and harvested by centrifugation in a cold centrifuge. The cells were treated with lysozyme (100 mg/ml) for 30 min on ice and sonicated. Following sonication, cell extracts were centrifuged and the supernatant was equilibrated with Ni-NTA resin (Qiagen, Valencia, Calif.) for 1 hr at 4° C. Protein bound resin was washed successively with increasing concentrations of imidazole buffer until the protein of interest was released from the resin. The purified protein was concentrated and the buffer exchanged to remove the imidazole. The protein concentration was adjusted to 1 ug/ml.
(§3) Compounds were selected on the basis of previous observations by van der Werf (J. Biochem. 347:693-701 (2000)) and Miyamoto et al. (Biochimica et Biophysica Acta 1251: 115-124 (1995)) and by searches for the ketone substructure.
(§4) All compounds were obtained from Sigma-Aldrich with only two exceptions. Levoglucosenone was obtained from Toronto Research Chemicals, Inc. and dimethyl-2-piperidone was prepared according to U.S. Pat. No. 6,077,955. For enzyme assays all compounds were dissolved to a concentration of 0.1 M in methanol, with the exceptions of norcamphor (dissolved in ethyl acetate), cyclododecanone, cycltridecanone and cyclopentadecanone (dissolved in propanol), and levoglucosenone (dissolved with acetone).
(§5) The monooxygenase activity of each over-expressed enzyme was assayed spectrophotometrically at 340 nm by monitoring the oxidation of NADPH. Assays were performed in individual quartz cuvettes, with a pathlength of 1 cm. […] An Ultrospec 4000 (Pharmacia Biotech, Cambridge, England) was used to read the absorbance of the samples over a two to ten minute time period and the SWIFT (Pharmacia Biotech) program was used to calculate the slope of the reduction in absorbance over time. For the Brevibactedum sp. […] Monooxygenase activity of each over-expressed enzyme is shown in Table 5, with respect to each ketone substrate. The specific activity values listed are given in umol/min/mg. The notation “ND” refers to “No Activity Detected”.

[2] = tested on: Arthrobacter sp. BP2 chnB monooxygenase; details: 1.25 mM substrate, pH 7.5; ND = No Activity Detected
Source text: as §1, §2, §3, §4, §5

[3] = tested on: Brevibacterium sp. HCU chnB2 monooxygenase; details: 1.25 mM substrate, pH 7.5; rates multiplied by a factor of 3.25 to adjust for decrease in activity due to storage; ND = No Activity Detected
Source text: as §1, §2, §3, §4, §5

[4] = tested on: Brevibacterium sp. HCU chnB1 monooxygenase; details: 1.25 mM substrate, pH 7.5; ND = No Activity Detected
Source text: as §1, §2, §3, §4, §5

[5] = molecular target: T1, Acinetobacter sp. SE19 chnB monooxygenase (Acinetobacter sp., UniProt Q9F7E4); details: 1.25 mM substrate, pH 7.5; ND = No Activity Detected
T1 construct: isolated full length BVMO genes from Brevibacterium sp; HCU, Acinetobacter SE19; C-terminal tail provided by the pTrcHis-TOPO vector (C); made in house; host or cells: E. coli
Source text: as §1, §2, §3, §4, §5

[6] = tested on: Rhodococcus sp. phi2 chnB monooxygenase; details: 1.25 mM substrate, pH 7.5; ND = No Activity Detected
Source text: as §1, §2, §3, §4, §5

[7] = tested on: Rhodococcus sp. phi1 chnB monooxygenase; details: 1.25 mM substrate, pH 7.5; ND = No Activity Detected
Source text: as §1, §2, §3, §4, §5

| Compound | Specific Activity of Monooxygenase Enzymes Against Various Ketone Substrates, sp. CHX chnB [1] [µmol/min/mg] | Specific Activity of Monooxygenase Enzymes Against Various Ketone Substrates, sp. BP2 chnB [2] [µmol/min/mg] | Specific Activity of Monooxygenase Enzymes Against Various Ketone Substrates, sp. HCU chnB2 [3] [µmol/min/mg] | Specific Activity of Monooxygenase Enzymes Against Various Ketone Substrates, sp. HCU chnB1 [4] [µmol/min/mg] | Specific Activity of Monooxygenase Enzymes Against Various Ketone Substrates, sp. SE19 chnB [5] [µmol/min/mg] | Specific Activity of Monooxygenase Enzymes Against Various Ketone Substrates, sp. phi2 chnB [6] [µmol/min/mg] | Specific Activity of Monooxygenase Enzymes Against Various Ketone Substrates, sp. phi1 chnB [7] [µmol/min/mg] |
| --- | --- | --- | --- | --- | --- | --- | --- |
| CC1CCCC1=O (stereo not drawn) [2-methyl-cyclopentanone] | 0.627 | 3.514 | 0.874 | 1.395 | 8.378 | 6.445 | 3.392 |
| O=C1CCCCCCCCCC1 [Cycloundecanone] | 0.058 | 0.064 | 0.125 |  | 0.064 | 0.051 |  |
| O=C1CCCCCCCCCCC1 [Cyclododecanone] | 0.051 | 0.198 | 0.229 |  | 0.122 | 0.122 |  |
| O=C1CCCC(=O)C1 [1,3-cyclohexanedione] | 0.032 | 0.397 | 0.978 | 0.237 | 0.237 | 0.141 |  |
| C[S+](C)[O-] [dimethyl sulfoxide] | 0.358 | 0.422 |  | 0.230 | 0.819 | 0.544 | 0.518 |
| O=C1CCCCCCCCCCCCCC1 [Cyclopenta-decanone] |  | 0.122 |  |  | 0.109 |  | 0.122 |
| O=C1CCCCC1c1ccccc1 (stereo not drawn) [2-phenyl-cyclohexanone] | 0.192 |  | 0.104 | 1.459 | 5.370 | 0.730 | 1.050 |
| CC1CCCCC1=O (stereo not drawn) [2-methyl-cyclohexanone] | 0.627 | 4.205 | 1.622 | 2.714 | 9.990 | 5.952 | 4.774 |
| O=C1C=C[C@H]2CO[C@@H]1O2 [Levoglucosenone] | 0.147 | 0.525 |  |  | 1.126 | 0.506 | 0.461 |
| O=C1CCCCCCCCC1 [Cyclodecanone] | 0.160 | 0.166 |  |  | 0.320 | 0.205 | 0.077 |
| OB(O)c1ccccc1 [Phenylboronic acid] |  | 0.192 |  | 1.606 | 0.102 | 0.109 |  |
| CCCCCCCCCCCC(C)=O [2-tridecanone] | 0.096 |  | 0.187 |  |  | 1.690 | 0.160 |
| O=C1CCCCC1=O [1,2-cyclohexanedione] | 0.096 | 0.237 | 0.416 | 0.787 | 0.077 |  | 0.083 |
| O=C1CCCCCCC1 [Cyclooctanone] | 0.410 | 0.646 |  |  | 1.984 | 0.141 | 0.627 |
| O=C1CCCC1 [Cyclopentanone] | 0.621 | 1.491 | 1.331 |  | 3.034 | 2.451 | 1.370 |
| O=C1CCC1 [Cyclobutanone] |  | 0.128 | 0.374 |  | 0.109 | 0.154 | 0.102 |
| O=C1CCCCCCCCCCCC1 [Cyclotridecanone] |  | 0.147 |  |  | 0.166 | 0.109 |  |
| CCCCCCC(=O)CCCCCC [dihexyl ketone] |  |  | 0.270 |  |  |  | 0.160 |
